From patent US20250339445A1, “Modulators of Orphan Nuclear Receptors for Treating Pancreatitis, Glioblastoma, Sarcopenia and Stroke” (Emory University, priority 2020, published 2025)
“Also recorded” adds a separate entry of the source.

What was measured:
RORα = molecular target: T1, RORα (Homo sapiens, UniProt P35398); assay: RORα activity by luciferase reporter (miR-122 promoter) in Huh-7 cells; format: cell-based
T1 construct: endogenous in cells; host or cells: Huh-7 (Huh7) human hepatocellular carcinoma cells
T1 sequence (P35398 1-523): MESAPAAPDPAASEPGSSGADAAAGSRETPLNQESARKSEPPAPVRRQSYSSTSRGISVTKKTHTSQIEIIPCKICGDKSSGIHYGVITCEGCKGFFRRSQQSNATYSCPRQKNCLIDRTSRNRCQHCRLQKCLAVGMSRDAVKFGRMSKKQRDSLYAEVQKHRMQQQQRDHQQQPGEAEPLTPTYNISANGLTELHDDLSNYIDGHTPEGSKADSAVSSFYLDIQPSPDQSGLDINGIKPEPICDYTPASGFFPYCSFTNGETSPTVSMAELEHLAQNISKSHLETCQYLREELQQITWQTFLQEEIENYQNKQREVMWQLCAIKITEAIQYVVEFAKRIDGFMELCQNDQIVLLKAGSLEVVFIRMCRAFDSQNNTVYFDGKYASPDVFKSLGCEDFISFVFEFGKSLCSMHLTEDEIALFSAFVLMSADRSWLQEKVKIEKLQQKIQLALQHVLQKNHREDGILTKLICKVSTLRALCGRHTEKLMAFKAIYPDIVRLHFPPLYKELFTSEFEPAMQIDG
Description: Huh-7 cells were transfected with a luciferase reporter plasmid containing the miR-122 promoter (extends to −900 from the transcription start site) with intact wild-type (WT) RORα response element (RORE) or mutated RORE (mut). The cells were treated with Compound 1 one day (24 hours) post-transfection at the indicated concentrations. Luciferase expression was measured after 24 hours of treatment and normalized to Renilla Luciferase activity expressed from a co-transfected pRL plasmid. The pRL Vector, which provides constitutive expression of Renilla luciferase, was used in combination with a firefly luciferase vector to co-transfect cells. Expression of Renilla luciferase provides an internal control value to which expression of the experimental firefly luciferase reporter gene may be normalized.
Luciferase assay. For Luciferase assays, cells grown in 24 well plates were co-transfected with a luciferase reporter plasmid (50 ng) and 1 ng of Renilla Luciferase vector (PRL, Promega) using the TransIT-LT 1 (Mirus) transfection reagent (MIR 2300, Madison, WI). Firefly and Renilla luciferase activity was assessed using the Dual Luciferase Reporter Assay system (Promega). Readings were taken in triplicates on a Mithras LB 940 Luminometer (Berthold Technologies). […]
Following transfections, the cells were lysed with passive lysis buffer (Cat #E1941; Promega), shaking for 20 min at RT and transferred into appropriate 96-well plate. Firefly and Renilla luciferase activity was assessed using the Dual Luciferase Reporter Assay system (Cat #E1910; Promega) on a luminometer Mithras 2000 (Centro XZ, LB960, Berthold Technologies, Bad Wildbad, Germany). […] Readings were taken in triplicate.
Following transfections, the cells were lysed with passive lysis buffer (Cat #E1941; Promega), shaking for 20 min at room temperature (RT) and transferred into the appropriate 96-well plate. Firefly and Renilla luciferase activity was assessed using the Dual Luciferase Reporter Assay system (Cat #E1910; Promega) on a luminometer Mithras 2000 (Centro XZ, LB960, Berthold Technologies, Bad Wildbad, Germany). […] Readings were taken in triplicates. […]
After transfections, the cells were lysed with passive lysis buffer (catalog no. E1941, Promega), shaken for 20 minutes at room temperature, and transferred into the appropriate 96-well plate. Firefly and Renilla luciferase activity was assessed using the Dual Luciferase Reporter Assay system (catalog no. E1910, Promega) on a luminometer Mithras 2000 (Centro XZ, LB960; Berthold Technologies, Bad Wildbad, Germany). […] Readings were taken in triplicate.

Sgp130FC mice = Sgp130FC mice treated with Compound 1; format: in vivo; conditions: 7.5 mg/kg ip twice/week, four weeks
Description: Sgp130FC mice were injected (ip) with Compound 1 for four weeks (7.5 mg/kg, twice/week). FIGS. 6A-6B show the qRT-PCR analysis of miR-122 levels in plasma (6A), and in the livers (6B) after 4 weeks treatment with saline (as a control) and Compound 1. MicroRNA-18 was used as a negative control and its plasma and liver levels were not affected following treatment with Compound 1. The effect seen on this microRNA in FIG. 6A is not significant compared to the significant effect seen on miR-122.
Compound 1 and AntagomiR injections to mice. C57BL/6 male mice, 7-8 weeks old, or Sgp130FC, 9-month-old male mice, were injected i.p. with 7.5 mg/kg Compound 1 dissolved in saline and 3% DMSO. Saline was injected as control. Mice were hydrodynamic tail vain injected with antagomiR-122 or antagomiR-control (negative control) (5 μg/mouse in 1.5 ml saline). Mice were sacrificed according to the legend of the figure describing the experimental results and the livers, white adipose and skeletal muscle tissues were frozen in liquid nitrogen or in OCT embedded frozen blocks, for further RNA and histologic analysis. AntagomiRs were obtained from Sigma Aldrich, see Table 3.

SMILES: O=C1Nc2cc(C(=O)N3CCC(Cc4ccccc4)CC3)ccc2Nc2ccccc21 [Compound 1]
- Induction of MIR122 promoter, compared with screened set and SR1078 (RORα; Huh7, overnight, 1 μM tested compounds, 10 μM SR1078): most potent
- Luciferase expression from miR-122 promoter with mutated RORE (RORα; Huh-7, mutated RORE): negates activity; also recorded: no activity; also recorded: no induction
- Luciferase expression from miR-122 promoter with WT RORE (RORα; Huh-7, wild-type RORE, 24 hours of treatment): dose-dependent increase; also recorded: induces expression of RORα-regulated luciferase; also recorded: increase expression of MIR122 promoter activity
- Liver and muscle triglyceride levels (Sgp130FC mice): reduces liver and muscle triglyceride levels
- MicroRNA-18 plasma and liver levels (negative control) (Sgp130FC mice): not affected
- miR-122 expression (plasma, liver) (Sgp130FC mice): increases miR-122 expression
